# Results reported in patent US20070207975A1, “Materials and methods for treating and preventing Her-2/neu overexpressing, FAS-elevated cancer cells” (EVANSTON NORTHWESTERN HEALTHCARE, priority 2006, published 2007).
# Test system: SK-Br3 cells
# Assay: TUNEL apoptosis assay, SK-Br3
# Format: cell-based, human
# Details: GLA 10 μg/mL, trastuzumab 10 μg/mL, alone or together, 48 hours
# Protocol: FIG. 6. […] After 72 hours, a TUNEL analysis was performed using the DeadEnd® Fluorometric TUNEL System (Promega Inc.) according to the manufacturer's protocol. The immunofluorescence photomicrographs of cells undergoing apoptosis (green staining) and the corresponding DAPI-counterstained photomicrographs are shown. […] Equal amounts of total protein (50 μg per lane) were subjected to Western blot analyses with a specific antibody against the p85 fragment of PARP, and then re-probed with a β-actin antibody. […] For each pair of columns, the height of the columns on the left represents the sum of the effect of each agent alone and, therefore, the expected apoptotic cell death if their effect was additive when used in combination. […] A) Cell surface expression of Her-2/neu protein in BT-474 and SK-Br3 cells was determined by flow cytometry using a mouse anti-Her-2/neu antibody directed against the extracellular domain of the p185^Her-2/neu oncoprotein (clone Ab-5; Oncogene Research Products; San Diego, Calif.). […] The mean fluorescence signal associated with cells for labeled p185^Her-2/neu was quantified using the Geo Mean (GM) fluorescence parameter provided with the software. […] Immunoreactive bands were detected by enhanced chemiluminescence reagent (Pierce, Rockford, Ill.). […] Densitometric values of protein bands were quantified using Scion Imaging Software (Scion Corp., Frederick, Md.).
compound,measurement,value
"CCCCCC=CCC=CCC=CCCCCC(=O)O [GLA, 6,9,12-octadecatrienoic acid]",cells that underwent apoptosis (TUNEL),3% (95% CI=2 to 4%)
